Source: patent US6667293B1, “Use of cyclodextrins to modulate gene expression with reduced immunostimulatory response” (priority 1995, dated 2003)

Legend:
[1] = test system: spleen lymphocytes of CD1 mice; test: Immunoglobulin synthesis (IgG/IgM ELISA) by spleen cells of in vivo treated mice; set-up: species or system mouse
Protocol: (§1) Male CD1 mice (4-5 weeks, 20-22 g, Charles river, Wilmington, Mass.) were used in this study. The animals were fed with commercial diet and water ad libidum and were kept at the animal facility of the University of Massachusetts Medical Center (Worcester, Mass.). For in vivo studies, phosphorothioate oligonucleotides (final concentration 4 mg/ml) were mixed with 5% of the cyclodextrin HPCD or HECD in sterile PBS, sonicated at 4° C. for 1 hour, followed by incubation at 4° C. overnight. The phosphorothioate oligonucleotide, either in plain PBS or mixed with cyclodextrin, was injected into mice intraperitoneally, in a volume of 0.25 ml (1 mg/mouse). After 24 hr (in the case of the phosphorothioate oligonucleotide of SEQ ID NO:4) and 48 hr (in the case of the phosphorothioate oligonucleotide of SEQ ID NO:2), mice were sacrificed and spleens were collected and prepared for further studies. Two or three mice were studied for each condition and analyzed individually.
Spleens from in vivo treated mice were harvested and single cell suspensions were set in culture at a density of 10^6 cells/ml, in 1 ml RPMI complete medium. […] The optical density (405 nm) was measured using an automatic ELISA plate reader (Bio-Tek Instruments, Inc). IgG and IgM levels were calculated based on the standard curve. […]

[2] = test system: spleen cells of CD1 mice; test: Cell cycle analysis of spleen cells from in vivo treated mice; set-up: species or system mouse
Protocol: as §1, with “The phosphorothioate oligonucleotide, either in plain PBS or mixed with cyclodextrin, was injected into mice intraperitoneally, in a volume of 0.25 ml (1 mg/mouse).” left out
Spleens from in vivo treated mice were harvested and single cell suspensions were set in culture in RPMI complete medium (10^6 cells/tube in 1 ml RPMI). After 4 hours of culture, cells were washed with FACS buffer and fixed for cell cycle analysis as described above. The experiments were done in duplicate.

[3] = test system: CD1 mice; test: Toxicity observation after intraperitoneal injection; assay type: in vivo, mouse; conditions: i.p. 50 mg/Kg
Protocol: as §1
Similar experiments were performed with the phosphorothioate oligonucleotide of SEQ ID NO:4. […] In order to reduce the toxicity, 25 mg/Kg of the phosphorothioate oligonucleotide of SEQ ID NO:4 was injected into the animals.

[4] = test system: mouse splenocytes; test: Splenic cell proliferation assay, [3H]-thymidine incorporation; assay type: cell-based; conditions: for cell proliferation ([3H]-thymidine incorporation): oligonucleotide alone, FIG. 1 / FIG. 3 (SEQ ID NO:4 at 1 or 10 μg/ml)
Protocol: Mouse spleen was taken from male CD1 mouse (4-5 weeks, Charles River, Wilmington, Mass.). Single cell suspensions were prepared by gently mincing with frosted ends of glass slides, washed twice, and then resuspended in RPMI complete medium [RPMI 1640 medium supplemented with 10%-heat inactivated (56° C. for 30 minutes) fetal bovine serum, 2 mM glutamine, 100 μg/ml streptomycin, 100 U/ml penicillin, and 50 μM 2-mercaptoethanol]. The cells were then plated in 96-well dishes at a density of 10^6 cells/ml, in a final volume of 100 μl. Oligonucleotides were added to the cell culture in 10 μl of TE buffer (10 mM Tris-HCL pH 7.5, 1 mM EDTA). Cyclodextrin analogs: 2-hydroxypropyl-βcyclodextrin (HPCD, degree of substitution 5-8), hydroxyethyl-β cyclodextrin (HECD, degree of substitution 15), and Encapsin (which is a mixture of hydroxypropyl β-cyclodextrin but has a different degree of substitution, 17.8), were purchased pyrogen free (Amaizo, Hammond, Ind.) and were added to the cells at concentration of 0.5% in RPMI medium except where indicated. Cells were then set to culture in a 37° C., 5% CO2-[…], humidified air incubator for further studies. The experiments were done in triplicate.
After 44 hours, cells were pulsed-labeled with 1 μCi [^3H]-thymidine/well (in 20 μl of RPMI medium) for 4 hours. Cells were then harvested by an automatic cell harvester (Skatron, Sterling, Va.) and the filters were counted using a scintillation counter. […] All the three cyclodextrin analogs reduced cell proliferation to similar levels.

[5] = test system: immunostimulatory response; conditions: known from the literature; cited from earlier work
[6] = test system: spleen of CD1 mice; test: Spleen size (spleen weight) after intraperitoneal injection; assay type: in vivo, mouse
Protocol: as §1

[7] = test system: murine splenic lymphocytes; test: Cell cycle analysis, in vitro (propidium iodide flow cytometry); assay type: cell-based, mouse; conditions: 48 hours, oligonucleotide 10 μg/ml, cyclodextrin 0.5%
[8] = test system: HIV-1; conditions: background statement; cited from earlier work
[9] = i.p. 1 mg/mouse (50 mg/Kg), 48 hr

## SEQ ID NO:4: phosphorothioate oligonucleotide, 20-mer that contains multiple 5′-CG-3′ motifs (GAGAACGCTCGACCTTCGAT; all phosphorothioate, sugars by position and methylation of C not given here)
[1]; SEQ ID NO:4, FIG. 7
  increase in production of IgG and IgM antibodies: approximately 10 fold
[2]; i.p. 25 mg/Kg, 24 hr
  % cells in G0/G1: 68.5 ± 0.5%
  % cells in G2/S: 22.7 ± 0.5%
  Increase (cells in G2/S compared with PBS): 41%
  stimulation of cell proliferation (cell cycle analysis): stimulated cell proliferation
[3]
  toxicity observation: noticeable bloody exudate and congestion in abdominal cavities
[4]
  cell proliferation ([3H]-thymidine incorporation): dramatic increase in cell proliferation
[5]
  immunostimulatory effect: induce an immunostimulatory response both in vitro and in vivo
[6]; SEQ ID NO:4 i.p., 24 hr, FIG. 6
  splenomegaly / spleen weight: induced splenomegaly

## 2-hydroxypropyl-β-cyclodextrin [HPCD]
[6]; 5% HPCD alone
  spleen weight compared to PBS-treated mice: no effect on spleen weight

## SEQ ID NO:3: phosphorothioate oligonucleotide that binds to the human p53 oncogene (CCCTGCTCCCCCCTGGCTCC; all phosphorothioate, sugars by position and methylation of C not given here)
[5]
  immunostimulatory effect: does not induce an immunostimulatory effect

## SEQ ID NO:2: phosphorothioate oligodeoxynucleotide complementary to the rev region of HIV-1; induces an immunostimulatory response (TCGTCGCTGTCTCCGCTTCTTCTTGCC; DNA, all phosphorothioate, methylation of C not given here)
[1]; SEQ ID NO:2, 48 hours after injection, FIG. 5
  production of IgG and IgM: highly significant increase
[7]
  % cells in G0/G1: 77.7 ± 1.0%
  % cells in G2/S: 22.3 ± 1.0%
  Increase (cells in S/G2 phases compared with medium alone): 44.8%
[2]; [9]
  % cells in G0/G1: 82.0 ± 1.2%
  % cells in G2/S: 18.0 ± 1.2%
[4]; 0.1 μg/ml oligonucleotide, FIG. 1
  change in [3H] thymidine incorporation: no significant change
[4]
  cell proliferation ([3H]-thymidine incorporation): increases cell proliferation in a concentration-dependent manner
[8]
  HIV-1 replication: inhibit HIV-1 replication
[6]; i.p. 1 mg/mouse, 48 hr, FIG. 4
  spleen weight relative to PBS-treated mice: about 1.5 times
